According to patent US4415574A, “Soluble N2 substituted derivatives of 2,4-diamino 5-benzyl pyrimidine, process for their preparation and medicaments containing them” (S. A. Panmedica, priority 1981, dated 1983):
Where two headings read alike, the source gives them in different places.

Experiments:
BACIL PUMILUS = assay: Inhibiting minimum concentration (I.M.C.), activity relative to trimethoprime, MULLER HINTON BACIL PUMILUS MEDIUM; assay type: cell-based; conditions: for % activity with respect to the base: ratio of I.M.C. to trimethoprime; for % activity with respect to the base corrected by molecular weight: ratio to trimethoprime
Description: (§1) The antibacterial activity of the derivatives according to the invention were tested in vitro by determining the inhibiting minimum concentrations (I.M.C.) on different germs.

COLI [1] = assay: Inhibiting minimum concentration (I.M.C.), activity relative to trimethoprime, MULLER HINTON COLI MEDIUM 4; assay type: cell-based; conditions: for % activity with respect to the base: ratio of I.M.C. to trimethoprime; for % activity to the base corrected by molecular weight: ratio to trimethoprime
Description: as §1

COLI [2] = assay: Inhibiting minimum concentration (I.M.C.), activity relative to trimethoprime, OXOIDE COLI MEDIUM 4; assay type: cell-based; conditions: for % activity with respect to the base: ratio of I.M.C. to trimethoprime; for % activity with respect to the base corrected by molecular weight: ratio to trimethoprime
Description: as §1

in vivo = conditions: mouse
dehydrofolate-reductase = conditions: cited from earlier work
bacteria = conditions: Gram-positive cocci, Gram-negative cocci and Gram negative bacilli; cited from earlier work
[3] = Solubility in water / pH of aqueous solutions; assay type: physicochemical; conditions: pH value

| pH at which the derivative is insoluble [3] | SMILES | % activity with respect to the base (BACIL PUMILUS) | % activity with respect to the base corrected by molecular weight (BACIL PUMILUS) | % activity with respect to the base (COLI [1]) | % activity to the base corrected by molecular weight (COLI [1]) | % activity with respect to the base (COLI [2]) | % activity with respect to the base corrected by molecular weight (COLI [2]) | LD50 (in vivo; po, read-out: LD 50 by mouth) | LD50 (in vivo; iv, read-out: LD 50 I.V.) | interference with dehydrofolate-reductase (words, prior art) (dehydrofolate-reductase) | antibacterial activity (words, prior art) (bacteria) |
| --- | --- | --- | --- | --- | --- | --- | --- | --- | --- | --- | --- |
| – | COc1cc(Cc2cnc(NC(c3ccc4c(c3)OCO4)S(=O)(=O)O)nc2N)cc(OC)c1OC (stereo not shown) [Example 18, N2 (3,4-Dioxy Methylene Phenyl) Methane Sulfonic Acid of 2,4-Diamino 5-(3,4,5-Trimethoxy Benzyl) Pyrimidine] | 21.4% | 38% | 14.85% | 26% | 27% | 48% | > 12000 mg/kg | – | – | – |
| – | CCOc1cc(C(Nc2ncc(Cc3cc(OC)c(OC)c(OC)c3)c(N)n2)S(=O)(=O)O)ccc1O (stereo not shown) [Example 24f, N2 (3-Ethoxy 4-Hydroxy) Phenyl Methane Sulfonic Acid of 5-(3,4,5-Trimethoxy Benzyl) 2,4-Diamino Pyrimidine] | 31.8% | 73% | 40.3% | 92% | 27.4% | 63% | > 12000 mg/kg | 1000 mg/kg | – | – |
| – | COc1cc(Cc2cnc(N)nc2N)cc(OC)c1OC [Trimethoprime, 5-(3,4,5-trimethoxybenzyl) 2,4diamino pyrimidine] | – | – | – | – | – | – | – | – | interferes with dehydrofolate-reductase | very wide-spectrum antibacterial agent |
| – | COc1cc(Cc2cnc(NC(c3ccco3)S(=O)(=O)O)nc2N)cc(OC)c1OC (stereo not shown) [Example 19] | 49.5% | 80% | 69.4% | 112% | 58.4% | 95% | > 12500 mg/kg | 900 mg/kg | – | – |
| – | COc1cc(Cc2cnc(NC(c3ccccc3O)S(=O)(=O)O)nc2N)cc(OC)c1OC (stereo not shown) [Example 25f, N2 (2-HYDROXY) PHENYL METHANE SULFONIC ACID OF 5-(3,4,5-TRIMETHOXY BENZYL) 2,4-DIAMINO PYRIMIDINE] | 73.1% | 159% | 55.4% | 120% | 38.3% | 84% | – | – | – | – |
| – | COc1cc(Cc2cnc(NC(c3cccc([N+](=O)[O-])c3)S(=O)(=O)O)nc2N)cc(OC)c1OC (stereo not shown) [Example 13, N2 (3-Nitro Phenyl) Methane Sulfonic Acid of 2,4-Diamino 5-(3,4,5-Trimethoxy Benzyl) Pyrimidine] | 23.2% | 42% | 17.2% | 31% | 32.5% | 59% | – | – | – | – |
| 5.6 | COc1cc(Cc2cnc(NC(c3ccccn3)S(=O)(=O)O)nc2N)cc(OC)c1OC (stereo not shown) [Example 22, N2 2-Pyridyl Methane Sulfonic Acid of 5-(3,4,5-Trimethoxy Benzyl) 2,4-Diamino Pyrimidine] | – | – | – | – | – | – | – | – | – | – |
| – | CCOc1cc(C(Nc2ncc(Cc3cc(OC)c(OC)c(OC)c3)c(N)n2)S(=O)(=O)O)ccc1O (stereo not shown) [Example 24b, N2 (3-Ethoxy 4-Hydroxy) Phenyl Methane Sulfonic Acid of 5-(3,4,5-Trimethoxy Benzyl) 2,4-Diamino Pyrimidine] | 42.2% | 79% | 43.9% | 84% | 48.7% | 93% | – | – | – | – |
| – | COc1cc(Cc2cnc(NC(c3ccc(Cl)cc3)S(=O)(=O)O)nc2N)cc(OC)c1OC (stereo not shown) [Example 11, N2 (4-Chloro Phenyl) Methane Sulfonic Acid of 2,4-Diamino 5-(3,4,5-Trimethoxy Benzyl) Pyrimidine] | 23% | 41% | 17.6% | 31% | 25.6% | 45% | – | – | – | – |
| – | COc1ccccc1C(Nc1ncc(Cc2cc(OC)c(OC)c(OC)c2)c(N)n1)S(=O)(=O)O (stereo not shown) [Example 15, N2 (2-Methoxy Phenyl) Methane Sulfonic Acid of 2,4-Diamino 5-(3,4,5-Trimethoxy Benzyl) Pyrimidine] | 60% | 106% | 47% | 73% | 64% | 107% | > 12000 mg/kg | 1000 mg/kg | – | – |
| – | COc1cc(Cc2cnc(NC(C)S(=O)(=O)O)nc2N)cc(OC)c1OC (stereo not shown) [Example 2, N2 Ethane Sulfonic acid of 2,4-Diamino 5-(3,4,5-Trimethoxy Benzyl) Pyrimidine] | 2.8% | 4% | 4.3% | 6.2% | 4% | 5.8% | – | – | – | – |
| – | COc1cc(Cc2cnc(NC(c3ccccc3O)S(=O)(=O)O)nc2N)cc(OC)c1OC (stereo not shown) [Example 25d, N2 (2-HYDROXY) PHENYL METHANE SULFONIC ACID OF 5-(3,4,5-TRIMETHOXY BENZYL) 2,4-DIAMINO PYRIMIDINE] | 55.5% | 104% | 45.4% | 85% | 28.3% | 53% | – | – | – | – |
